Data published in patent US7319147B2, “Porphyrins and related compounds” (Bioscience Technology Investment Holdings Limited, priority 2000, dated 2008).

Tests used:
[1] = Normal tissue damage / cutaneous photosensitivity by ear swelling after irradiation; assay type: in vivo, mice; conditions: 0.88 μmol/kg; same light dose 24 h after drug injection
Experimental: In a separate group of mice, the normal tissue damage was assessed by irradiating one ear with 40 Jcm^−2 of broad spectrum white light delivered using a fibre bundle from the xenon light source. The incident power at the ear surface was 638 mWcm^−2 and light was applied for 63 s. Animal ears were irradiated with light 24 h after administration of N-Me-NC-m-THPP. The opposing ear served as a control. The response was assessed twenty-four hours after irradiation by measuring the ear thickness at three sites on the upper third of the ear using a fixed-force micrometer with a vernier-interpolated resolution of 2 μm and an accuracy of 10 μm (Neill instruments).

syngeneic colo26 tumour = conditions: m-THPP dose of 1.61 μmol/kg; light at 652 nm; Berenbaum et al. 1993; cited from earlier work

SMILES | Ear Swelling (irradiated − control; μm) [1] | tumour necrosis (literature) (syngeneic colo26 tumour)
Oc1cccc(-c2c3nc(c(-c4cccc(O)c4)c4ccc([nH]4)c(-c4cccc(O)c4)c4nc(c(-c5cccc(O)c5)c5ccc2[nH]5)CC4)C=C3)c1 [m-THPC, tetra(3-hydroxyphenyl)dihydroporphyrin] | 41 μm | –
Oc1cccc(-c2c3nc(c(-c4cccc(O)c4)c4ccc([nH]4)c(-c4cccc(O)c4)c4nc(c(-c5cccc(O)c5)c5ccc2[nH]5)C=C4)C=C3)c1 [m-THPP] | – | 0.14 mm
